Laboratory results published in article PMC4844575, “The influence of different metal-chelate conjugates of pentixafor on the CXCR4 affinity” (EJNMMI Research, 2016).
Read-outs that look alike come from different tables or passages of the source. Where a SMILES comes first, the peptide text is derived from it. Side-chain parts run from the residue outwards. [ ]: non-standard residue; d: D form. The star is where a group is joined. DFO(CSNHC6H4NHCS) = CC(=O)N(O)CCCCCNC(=O)CCC(=O)N(O)CCCCCNC(=O)CCC(=O)N(O)CCCCCNC(=S)Nc1ccc(NC(=S)*)cc1; DOTAGA = O=C(O)CN1CCN(CC(=O)O)CCN(C(CCC(=O)*)C(=O)O)CCN(CC(=O)O)CC1; DOTA = O=C(O)CN1CCN(CC(=O)O)CCN(CC(=O)*)CCN(CC(=O)O)CC1; NODAGA = O=C(O)CN1CCN(CC(=O)O)CCN(C(CCC(=O)*)C(=O)O)CC1; X2 = O=C(O)CN1CCN(CC(=O)O)CCN(Cc2ccc(NC(=S)*)cc2)CC1; NOTA = O=C(O)CN1CCN(CC(=O)O)CCN(CC(=O)*)CC1; 2Nal = N[C@@H](Cc1ccc2ccccc2c1)C(=O)O; dNMeOrn = CN[C@H](CCCN)C(=O)O; 4Amb = NCc1ccc(C(=O)O)cc1

Columns and labels:
[1] = biological target: T1, CXCR4 (Homo sapiens, UniProt P61073); experiment: competitive binding assay on Jurkat cells with [125I]FC131 as radioligand
T1 construct: endogenous in cells; host or cells: Jurkat T-cell leukemia cells
Description: For in vitro experiments, the Jurkat T - cell line was used. […] The cell line was cultured at 37 °C in a humidified atmosphere with 5 % CO2 and passaged two to three times a week, depending on the cell count.
Jurkat cells (4 × 10^5 cells per vial) were incubated with the respective peptide of interest at the final concentrations ranging from 10^−11 to 10^−5 M and app. […] The total sample volume was 250 μL. After an incubation time of 120 min, the vials were centrifuged at 1300 rpm (Heraeus Megafuge, Thermo) for 3 min and the supernatant was removed. The cells were washed twice with 200 μL ice-cold Hank’s balanced salt solution (HBSS). After each washing step, the samples were centrifuged and the supernatant removed. Finally, the amount of displaced and bound radioligand in the combined fractions of the supernatant and the cell pellet was quantified. The half maximal inhibitory concentration (IC50) values were determined using GraphPad Prism software.

[2] = tested on: OH1 human small cell lung cancer tumor-bearing mice; conditions: mouse, in vivo, 1 h; cited from earlier work
[3] = tested on: hCXCR4; conditions: read-out: affinity towards hCXCR4; cited from earlier work
[4] = Jurkat T-cells, 4 × 10^5 cells per vial, app. 0.1 nM [125I]FC131, 120 min incubation, mean ± SD (n = 3)

T1 sequence (P61073 whole entry): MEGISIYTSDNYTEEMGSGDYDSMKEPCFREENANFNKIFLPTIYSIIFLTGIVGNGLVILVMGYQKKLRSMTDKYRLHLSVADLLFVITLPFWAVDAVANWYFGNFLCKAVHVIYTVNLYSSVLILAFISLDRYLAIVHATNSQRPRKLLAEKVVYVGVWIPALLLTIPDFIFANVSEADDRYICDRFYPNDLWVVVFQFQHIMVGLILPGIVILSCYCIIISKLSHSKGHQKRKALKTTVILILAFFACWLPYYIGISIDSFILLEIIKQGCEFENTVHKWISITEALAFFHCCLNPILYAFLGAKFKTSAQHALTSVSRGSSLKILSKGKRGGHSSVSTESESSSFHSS

Row | Compound | IC50 [1, 4] | further results
1 | CN1C(=O)[C@@H](Cc2ccc(O)cc2)NC(=O)CNC(=O)[C@H](Cc2ccc3ccccc3c2)NC(=O)[C@H](CCCNC(=N)N)NC(=O)[C@H]1CCCNC(=O)c1ccc(CNC(=O)CN2CCN(CC(=O)O)CCN(CC(=O)O)CCN(CC(=O)O)CC2)cc1 [[^natBi^3+]1] [metal not drawn] (cyclo([dY][dNMeOrn]([4Amb-DOTA])R[2Nal]G)) | 22.1 ± 7 nM | –
2 | CC(=O)N(O)CCCCCNC(=O)CCC(=O)N(O)CCCCCNC(=O)CCC(=O)N(O)CCCCCNC(=S)Nc1ccc(NC(=S)NCc2ccc(C(=O)NCCC[C@@H]3C(=O)N[C@@H](CCCNC(=N)N)C(=O)N[C@@H](Cc4ccc5ccccc5c4)C(=O)NCC(=O)N[C@H](Cc4ccc(O)cc4)C(=O)N3C)cc2)cc1 [Compound 8] (cyclo([2Nal]G[dY][dNMeOrn]([4Amb-DFO(CSNHC6H4NHCS)])R)) | – | IC50 [1]: 105 ± 35 nM
3 | CN1C(=O)[C@@H](Cc2ccc(O)cc2)NC(=O)CNC(=O)[C@H](Cc2ccc3ccccc3c2)NC(=O)[C@H](CCCNC(=N)N)NC(=O)[C@H]1CCCNC(=O)c1ccc(CNC(=O)CN2CCN(CC(=O)O)CCN(CC(=O)O)CC2)cc1 [Compound 3] (cyclo([2Nal]G[dY][dNMeOrn]([4Amb-NOTA])R)) | – | IC50 [1]: 253 ± 49 nM
4 | CN1C(=O)[C@@H](Cc2ccc(O)cc2)NC(=O)CNC(=O)[C@H](Cc2ccc3ccccc3c2)NC(=O)[C@H](CCCNC(=N)N)NC(=O)[C@H]1CCCNC(=O)c1ccc(CNC(=O)CCC(C(=O)O)N2CCN(CC(=O)O)CCN(CC(=O)O)CCN(CC(=O)O)CC2)cc1 (some centres unmarked) [[^natBi^3+]2] [metal not drawn] (cyclo([2Nal]G[dY][dNMeOrn]([4Amb-DOTAGA])R)) | 29.4 ± 7.6 nM | –
5 | CN1C(=O)[C@@H](Cc2ccc(O)cc2)NC(=O)CNC(=O)[C@H](Cc2ccc3ccccc3c2)NC(=O)[C@H](CCCNC(=N)N)NC(=O)[C@H]1CCCNC(=O)c1ccc(CNC(=O)CCC(C(=O)O)N2CCN(CC(=O)O)CCN(CC(=O)O)CC2)cc1 (some centres unmarked) [Compound 4] (cyclo([2Nal]G[dY][dNMeOrn]([4Amb-NODAGA])R)) | – | IC50 [1]: 275 ± 106 nM
6 | CN1C(=O)[C@@H](Cc2ccc(O)cc2)NC(=O)CNC(=O)[C@H](Cc2ccc3ccccc3c2)NC(=O)[C@H](CCCNC(=N)N)NC(=O)[C@H]1CCCNC(=O)c1ccc(CNC(=O)CN2CCN(CC(=O)O)CCN(CC(=O)O)CC2)cc1 [[^natF]AlF-3] (cyclo([2Nal]G[dY][dNMeOrn]([4Amb-NOTA])R)) | 220 ± 57 nM | –
7 | CN1C(=O)[C@@H](Cc2ccc(O)cc2)NC(=O)CNC(=O)[C@H](Cc2ccc3ccccc3c2)NC(=O)[C@H](CCCNC(=N)N)NC(=O)[C@H]1CCCNC(=O)c1ccc(CNC(=S)Nc2ccc(CC(CN(CCN(CC(=O)O)CC(=O)O)CC(=O)O)N(CC(=O)O)CC(=O)O)cc2)cc1 (some centres unmarked) [Compound 7] | – | IC50 [1]: 200 ± 73 nM
8 | CN1C(=O)[C@@H](Cc2ccc(O)cc2)NC(=O)CNC(=O)[C@H](Cc2ccc3ccccc3c2)NC(=O)[C@H](CCCNC(=N)N)NC(=O)[C@H]1CCCNC(=O)c1ccc(CNC(=O)CN2CCN(CC(=O)O)CCN(CC(=O)O)CCN(CC(=O)O)CC2)cc1 [[^natCu^2+]1] [metal not drawn] (cyclo([dY][dNMeOrn]([4Amb-DOTA])R[2Nal]G)) | 131 ± 11 nM | –
9 | CN1C(=O)[C@@H](Cc2ccc(O)cc2)NC(=O)CNC(=O)[C@H](Cc2ccc3ccccc3c2)NC(=O)[C@H](CCCNC(=N)N)NC(=O)[C@H]1CCCNC(=O)c1ccc(CNC(=O)CN2CCN(CC(=O)O)CCN(CC(=O)O)CCN(CC(=O)O)CC2)cc1 [[^natLu^3+]1] [metal not drawn] (cyclo([dY][dNMeOrn]([4Amb-DOTA])R[2Nal]G)) | 40.9 ± 12 nM | –
10 | CN1C(=O)[C@@H](Cc2ccc(O)cc2)NC(=O)CNC(=O)[C@H](Cc2ccc3ccccc3c2)NC(=O)[C@H](CCCNC(=N)N)NC(=O)[C@H]1CCCNC(=O)c1ccc(CNC(=O)CCC(C(=O)O)N2CCN(CC(=O)O)CCN(CC(=O)O)CCN(CC(=O)O)CC2)cc1 (some centres unmarked) [Compound 2] (cyclo([2Nal]G[dY][dNMeOrn]([4Amb-DOTAGA])R)) | – | IC50 [1]: 654 ± 263 nM
11 | CN1C(=O)[C@@H](Cc2ccc(O)cc2)NC(=O)CNC(=O)[C@H](Cc2ccc3ccccc3c2)NC(=O)[C@H](CCCNC(=N)N)NC(=O)[C@H]1CCCNC(=S)Nc1ccc(CN2CCN(CC(=O)O)CCN(CC(=O)O)CC2)cc1 [Compound 5] (cyclo([2Nal]G[dY][dNMeOrn](X2)R)) | – | IC50 [1]: 115 ± 24 nM
12 | CN1C(=O)[C@@H](Cc2ccc(O)cc2)NC(=O)CNC(=O)[C@H](Cc2ccc3ccccc3c2)NC(=O)[C@H](CCCNC(=N)N)NC(=O)[C@H]1CCCNC(=O)c1ccc(CNC(=O)CN2CCN(CC(=O)O)CCN(CC(=O)O)CC2)cc1 [[^natCu^2+]3] [metal not drawn] (cyclo([2Nal]G[dY][dNMeOrn]([4Amb-NOTA])R)) | 46.1 ± 26 nM | –
13 | cyclo(-D-Tyr-N-Me-D-Orn(aminomethylbenzoyl (AMB)-DOTA)-L-Arg-L-2-Nal-Gly-) [[^68Ga]pentixafor] | – | uptake in CXCR4-expressing tissue (tumor) [2]: 6.16 % ± 1.16 % ID/g; IC50 [3]: 5 nM
14 | CN1C(=O)[C@@H](Cc2ccc(O)cc2)NC(=O)CNC(=O)[C@H](Cc2ccc3ccccc3c2)NC(=O)[C@H](CCCNC(=N)N)NC(=O)[C@H]1CCCNC(=O)c1ccc(CNC(=O)CCC(C(=O)O)N2CCN(CC(=O)O)CCN(CC(=O)O)CC2)cc1 (some centres unmarked) [[^natCu^2+]4] [metal not drawn] (cyclo([2Nal]G[dY][dNMeOrn]([4Amb-NODAGA])R)) | 343 ± 10 nM | –
15 | CN1C(=O)[C@@H](Cc2ccc(O)cc2)NC(=O)CNC(=O)[C@H](Cc2ccc3ccccc3c2)NC(=O)[C@H](CCCNC(=N)N)NC(=O)[C@H]1CCCNC(=O)c1ccc(CNC(=O)CCC(C(=O)O)N2CCN(CC(=O)O)CCN(CC(=O)O)CCN(CC(=O)O)CC2)cc1 (some centres unmarked) [[^natCu^2+]2] [metal not drawn] (cyclo([2Nal]G[dY][dNMeOrn]([4Amb-DOTAGA])R)) | 1160 ± 220 nM | –

Now from value to compound, other results behind:

Row | IC50 [1, 4] | Compound | further results
16 | 329 ± 49 nM | CN1C(=O)[C@@H](Cc2ccc(O)cc2)NC(=O)CNC(=O)[C@H](Cc2ccc3ccccc3c2)NC(=O)[C@H](CCCNC(=N)N)NC(=O)[C@H]1CCCNC(=S)Nc1ccc(CN2CCN(CC(=O)O)CCN(CC(=O)O)CC2)cc1 [[^natF]AlF-5] (cyclo([2Nal]G[dY][dNMeOrn](X2)R)) | –
17 | 188 ± 2.8 nM | CN1C(=O)[C@@H](Cc2ccc(O)cc2)NC(=O)CNC(=O)[C@H](Cc2ccc3ccccc3c2)NC(=O)[C@H](CCCNC(=N)N)NC(=O)[C@H]1CCCNC(=O)c1ccc(CNC(=O)CCC(C(=O)O)N2CCN(CC(=O)O)CCN(CC(=O)O)CCN(CC(=O)O)CC2)cc1 (some centres unmarked) [[^natLu^3+]2] [metal not drawn] (cyclo([2Nal]G[dY][dNMeOrn]([4Amb-DOTAGA])R)) | –
18 | 17.8 ± 7.7 nM | CN1C(=O)[C@@H](Cc2ccc(O)cc2)NC(=O)CNC(=O)[C@H](Cc2ccc3ccccc3c2)NC(=O)[C@H](CCCNC(=N)N)NC(=O)[C@H]1CCCNC(=O)c1ccc(CNC(=O)CN2CCN(CC(=O)O)CCN(CC(=O)O)CC2)cc1 [[^natGa^3+]3] [metal not drawn] (cyclo([2Nal]G[dY][dNMeOrn]([4Amb-NOTA])R)) | –
19 | 148 ± 27 nM | CC(=O)N(O)CCCCCNC(=O)CCC(=O)N(O)CCCCCNC(=O)CCC(=O)N(O)CCCCCNC(=S)Nc1ccc(NC(=S)NCc2ccc(C(=O)NCCC[C@@H]3C(=O)N[C@@H](CCCNC(=N)N)C(=O)N[C@@H](Cc4ccc5ccccc5c4)C(=O)NCC(=O)N[C@H](Cc4ccc(O)cc4)C(=O)N3C)cc2)cc1 [[^natZr^4+]8, metal not drawn] (cyclo([2Nal]G[dY][dNMeOrn]([4Amb-DFO(CSNHC6H4NHCS)])R)) | –
20 | 342 ± 72 nM | CN1C(=O)[C@@H](Cc2ccc(O)cc2)NC(=O)CNC(=O)[C@H](Cc2ccc3ccccc3c2)NC(=O)[C@H](CCCNC(=N)N)NC(=O)[C@H]1CCCNC(=O)c1ccc(CNC(=O)CCC(C(=O)O)N2CCN(CC(=O)O)CCN(CC(=O)O)CC2)cc1 (some centres unmarked) [[^natGa^3+]4] [metal not drawn] (cyclo([2Nal]G[dY][dNMeOrn]([4Amb-NODAGA])R)) | –
21 | 380 ± 102 nM | CN1C(=O)[C@@H](Cc2ccc(O)cc2)NC(=O)CNC(=O)[C@H](Cc2ccc3ccccc3c2)NC(=O)[C@H](CCCNC(=N)N)NC(=O)[C@H]1CCCNC(=O)c1ccc(CNC(=O)CCC(C(=O)O)N2CCN(CC(=O)O)CCN(CC(=O)O)CCN(CC(=O)O)CC2)cc1 (some centres unmarked) [[^natGa^3+]2] [metal not drawn] (cyclo([2Nal]G[dY][dNMeOrn]([4Amb-DOTAGA])R)) | –
22 | 126 ± 89 nM | CN1C(=O)[C@@H](Cc2ccc(O)cc2)NC(=O)CNC(=O)[C@H](Cc2ccc3ccccc3c2)NC(=O)[C@H](CCCNC(=N)N)NC(=O)[C@H]1CCCNC(=O)c1ccc(CNC(=O)CCC(C(=O)O)N2CCN(CC(=O)O)CCN(CC(=O)O)CCN(CC(=O)O)CC2)cc1 (some centres unmarked) [[^natY^3+]2] [metal not drawn] (cyclo([2Nal]G[dY][dNMeOrn]([4Amb-DOTAGA])R)) | –
